Reference: patent US20060063736A1, “Compositions and methods for inhibiting mucin-type O-linked glycosylation” (priority 2004, published 2006)

Key:
[1] = target: T1, rppGalNAcT-10 (Rattus norvegicus, UniProt Q925R7); experiment: Radiolabel capture assay, rppGalNAcT-10; type: biochemical; conditions: MUC5AC glycopeptide
T1 construct: plasmids encoding truncated secreted ppGalNAcTs-1 to −5, -7, -10 and -11; made in house; host or cells: COS-7
T1 sequence (Q925R7 32-603 limits assumed): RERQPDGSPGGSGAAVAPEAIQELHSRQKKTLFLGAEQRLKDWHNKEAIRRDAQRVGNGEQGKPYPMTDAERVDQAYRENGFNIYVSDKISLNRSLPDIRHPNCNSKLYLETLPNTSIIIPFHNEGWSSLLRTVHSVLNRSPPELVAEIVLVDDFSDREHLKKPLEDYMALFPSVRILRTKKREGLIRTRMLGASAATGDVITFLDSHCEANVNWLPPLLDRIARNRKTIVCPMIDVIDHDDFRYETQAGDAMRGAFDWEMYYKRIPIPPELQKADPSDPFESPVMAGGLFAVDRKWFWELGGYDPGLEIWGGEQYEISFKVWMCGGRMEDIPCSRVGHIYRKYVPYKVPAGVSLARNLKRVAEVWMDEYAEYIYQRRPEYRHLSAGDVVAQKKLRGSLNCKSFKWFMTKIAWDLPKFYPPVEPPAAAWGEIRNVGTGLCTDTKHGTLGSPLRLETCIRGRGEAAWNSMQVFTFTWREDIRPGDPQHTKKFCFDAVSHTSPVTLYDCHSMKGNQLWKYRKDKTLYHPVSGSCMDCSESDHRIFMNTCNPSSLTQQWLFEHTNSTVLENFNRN
Method: (§1) Radiolabel capture assays using ^14C-labeled UDP-GalNAc were performed as previously described with various concentrations of 1-68A or 2-68A in 2% DMSO. Ten Hagen et al. (2001) J. Biol. Chem. 276:17395-17404.
(§2) Table 1. IC50 values for 1-68A and 2-68A with ppGalNAcTs-1 to −5, -7, -10, -11, β1-4GalT and α1-3GalT. The requirement of glycopeptides as substrates for ppGalNAcT-7 and -10 precluded the use of the ELLA, as both the substrate and product bind HPA-HRP. Thus, the radiolabel capture assay was employed to measure the IC50 values of 1-68A and 2-68A with ppGalNAcT-7 and -10 using MUC5AC (GTTPSPVPTTSTTSAP; SEQ ID NO:15) glycopeptide, previously shown to be substrate for both enzymes. Ten Hagen et al. (1999) J. Biol. Chem. 274:27867-27874; and Ten Hagen et al. (2001) J. Biol. Chem. 276:17395-17404. IC50 values of 1-68A and 2-68A with ppGalNAcT-5 were performed with α-FLAG purified enzyme and radiolabel capture assay, due to low activity and stability of the crude enzyme. m=murine, r=rattus.

[2] = target: T2, mppGalNAcT-2 (Mus musculus, UniProt Q6PB93); experiment: ELLA for ppGalNAcTs, mppGalNAcT-2; type: biochemical, murine; conditions: 20 μM UDP-GalNAc, 50 μM EA2 peptide 4
T2 construct: plasmids encoding truncated secreted ppGalNAcTs-1 to −5, -7, -10 and -11; made in house; host or cells: COS-7
T2 sequence (Q6PB93 25-570 limits assumed): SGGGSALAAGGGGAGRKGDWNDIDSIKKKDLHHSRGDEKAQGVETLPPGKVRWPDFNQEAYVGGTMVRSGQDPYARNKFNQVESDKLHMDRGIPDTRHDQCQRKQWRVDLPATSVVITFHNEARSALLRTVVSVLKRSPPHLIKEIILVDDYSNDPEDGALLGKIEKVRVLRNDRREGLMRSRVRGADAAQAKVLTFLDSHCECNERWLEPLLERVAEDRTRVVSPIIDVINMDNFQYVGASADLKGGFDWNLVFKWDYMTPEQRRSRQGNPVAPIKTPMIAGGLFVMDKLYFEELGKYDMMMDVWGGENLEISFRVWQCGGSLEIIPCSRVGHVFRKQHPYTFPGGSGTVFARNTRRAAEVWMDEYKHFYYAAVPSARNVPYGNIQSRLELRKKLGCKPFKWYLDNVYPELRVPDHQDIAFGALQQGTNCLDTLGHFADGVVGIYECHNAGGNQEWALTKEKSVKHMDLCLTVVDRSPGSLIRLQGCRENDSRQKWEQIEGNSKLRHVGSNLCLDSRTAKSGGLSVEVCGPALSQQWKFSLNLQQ
Method: COS-7 cells were transiently transfected with plasmids encoding truncated secreted ppGalNAcTs-1 to −5, -7, -10 and -11 as previously described. Hagen et al. (1997) J. Biol. Chem. 272:13843-13848. The crude conditioned medium was used as the enzyme source.
Standard reaction conditions for ppGalNAcT assays were as follows. The reaction mixture contained the following components in a final volume of 25 μL: 10 mM MnCl2, 40 mM sodium cacodylate, 40 mM β-mercaptoethanol, 0.1% Triton X-100, pH 6.5, 5 μL of conditioned media, and various concentrations of EA2 peptide 4, UDP-GalNAc and inhibitor. All uridine-based compounds were dissolved in dimethyl sulfoxide (DMSO). […] Reaction rates were linear over the period monitored (20-30 min).
96-Well NeutrAvidin-coated plates were prewashed 3 times with 200 μL of wash buffer (25 mM Tris, 150 mM NaCl, 0.1% bovine serum albumin (BSA) (w/v), and 0.05% Tween (v/v), pH 7.2). […] After 3 washes with 200 μL of PBS, bound HPA-HRP was quantified by the addition of 100 μL of TMB peroxide solution. […] HRP activity was terminated by the addition of 50 μL of 2 N H2SO4 and the resulting solution was analyzed at 450 nm using a UV/Vis microtiter plate reader. The amount of product generated by the ppGalNAcT was extrapolated from absorbance values using an equation fit to the standard curve derived from Origin 6.1 software.

[3] = target: T3, rppGalNAcT-7 (Rattus norvegicus, UniProt Q9R0C5); experiment: Radiolabel capture assay, rppGalNAcT-7; type: biochemical; conditions: MUC5AC glycopeptide
T3 construct: plasmids encoding truncated secreted ppGalNAcTs-1 to −5, -7, -10 and -11; made in house; host or cells: COS-7
T3 sequence (Q9R0C5 30-657 limits assumed): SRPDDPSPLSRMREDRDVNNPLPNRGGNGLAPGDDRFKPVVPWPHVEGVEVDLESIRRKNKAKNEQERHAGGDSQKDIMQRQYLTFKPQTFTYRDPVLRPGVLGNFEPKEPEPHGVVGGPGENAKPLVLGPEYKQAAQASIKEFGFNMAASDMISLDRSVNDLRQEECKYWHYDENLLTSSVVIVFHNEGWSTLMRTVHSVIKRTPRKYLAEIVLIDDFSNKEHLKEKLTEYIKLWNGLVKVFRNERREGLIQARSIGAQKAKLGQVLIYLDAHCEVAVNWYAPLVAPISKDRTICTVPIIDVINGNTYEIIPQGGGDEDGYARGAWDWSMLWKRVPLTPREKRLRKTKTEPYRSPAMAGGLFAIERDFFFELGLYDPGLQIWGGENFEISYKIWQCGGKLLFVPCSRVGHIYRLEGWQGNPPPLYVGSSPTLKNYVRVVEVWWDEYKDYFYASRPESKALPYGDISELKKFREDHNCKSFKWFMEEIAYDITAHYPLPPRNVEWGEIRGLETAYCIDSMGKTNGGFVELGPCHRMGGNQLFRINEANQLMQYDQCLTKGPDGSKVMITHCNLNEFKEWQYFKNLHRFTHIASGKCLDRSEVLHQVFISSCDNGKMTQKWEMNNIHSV
Method: as §1, §2

| Compound | IC50 [1] [µM] | IC50 [2] [µM] | IC50 [3] [µM] |
| --- | --- | --- | --- |
| O=c1ccn([C@@H]2O[C@H](CON=Cc3ccc(O)c(O)c3O)[C@@H](O)[C@H]2O)c(=O)[nH]1 [1-68A] | 7 ± 1 | 15 ± 1 | 22 ± 2 |
| O=C(CON=Cc1ccc(O)c(O)c1O)NC[C@H]1O[C@@H](n2ccc(=O)[nH]c2=O)[C@H](O)[C@@H]1O [2-68A] | 6 ± 1 | 18 ± 2 | 27 ± 2 |
